One assay addresses Mcl-1 protein (UniProtKB primary accession number: Q07820) (Homo sapiens, UniProt Q07820). Kind of assay: Inhibition of Mcl-1 by fluorescence polarisation, Method 1. Format: binding. As to conditions: read-out: IC50 (M) Mcl-1 FP. The method in brief:
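Binding was measured as fluorescence polarisation of a fluorescein-labelled ligand (1 nM) displaced from Mcl-1 (5 nM), both final. Compounds ran as 11-point series with final DMSO at 5%.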

Assay [1] concerns H929 multiple myeloma tumour line. As to the kind of experiment: In vitro cytotoxicity, Microculture Tetrazolium Assay. In kind it is cell-based. As to conditions: H929 cells, 48 hours exposure, MTT, read-out: IC50 (μM) MTT H929. As for the experimental part: The cytotoxicity studies were carried out on the H929 multiple myeloma tumour line.
The cells are distributed onto microplates and exposed to the test compounds for 48 hours.

[2] abbreviates: fluorescence polarisation, Method 1, or Method 2.
[3] abbreviates: fluorescence polarisation test, Method 2 values are underlined in the patent (underlining not visible here).

The source of these data is patent US9670227B2, “Thienopyrimidine derivatives, a process for their preparation and pharmaceutical compositions containing them” (LES LABORATOIRES SERVIER, priority 2013, dated 2017).

Like-named read-outs stand apart in the source and are kept apart here.

In general, IC50 refers to the concentration that inhibits the measured activity by half.

Sequence of Mcl-1 protein (Q07820 whole entry): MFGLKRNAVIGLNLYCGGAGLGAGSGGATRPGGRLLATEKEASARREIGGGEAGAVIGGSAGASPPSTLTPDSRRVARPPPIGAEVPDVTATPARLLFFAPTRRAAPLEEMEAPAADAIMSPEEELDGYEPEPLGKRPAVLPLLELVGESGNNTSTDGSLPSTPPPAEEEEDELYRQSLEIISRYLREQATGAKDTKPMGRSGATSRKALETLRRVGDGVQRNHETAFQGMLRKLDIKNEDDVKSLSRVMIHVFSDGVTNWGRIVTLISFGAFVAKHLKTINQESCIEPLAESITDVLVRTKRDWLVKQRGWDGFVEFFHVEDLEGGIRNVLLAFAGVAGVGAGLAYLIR

`COc1ccccc1-c1nccc(COc2ccccc2CC(Oc2ncnc3sc(C#CCCCc4ccccc4)c(-c4ccc(OCCN5CCN(C)CC5)c(Cl)c4C)c23)C(=O)O)n1` [Example 783, (2R)-2-{[(5Sa)-5-{3-chloro-2-methyl-4-[2-(4-methylpiperazin-1-yl)ethoxy]phenyl}-6-(5-phenylpent-1-yn-1-yl)thieno[2,3-d]pyrimidin-4-yl]oxy}-3-(2-{[2-(2-methoxyphenyl)pyrimidin-4-yl]methoxy}phenyl)propanoic acid]: the IC50 at Mcl-1 protein (setting [2]) worked out at 1.06e-09 M; in assay [1] (Homo sapiens, NCI-H929, 48 h), 0.037 µM.
Consider `Cc1c(-c2c(-c3ccco3)sc3ncnc(OC(Cc4ccccc4OCc4ccncn4)C(=O)O)c23)ccc(OCCN2CCN(C)CC2)c1Cl` [Example 259, (2R)-2-{[(5Sa)-5-{3-chloro-2-methyl-4-[2-(4-methylpiperazin-1-yl)ethoxy]phenyl}-6-(furan-2-yl)thieno[2,3-d]pyrimidin-4-yl]oxy}-3-[2-(pyrimidin-4-ylmethoxy)phenyl]propanoic acid], for which the IC50 at Mcl-1 protein (setting [3]) turned out to be 5.2e-09 M; in assay [1] (Homo sapiens, NCI-H929, 48 h), 0.07 µM.
Turning to `Cc1c(-c2c(-c3ccc(F)cc3)sc3ncnc(OC(Cc4ccccc4OCc4cocn4)C(=O)O)c23)ccc(OCCN2CCN(C)CC2)c1Cl` [Example 98, (2R)-2-{[(5Sa)-5-{3-chloro-2-methyl-4-[2-(4-methylpiperazin-1-yl)ethoxy]phenyl}-6-(4-fluorophenyl)thieno[2,3-d]pyrimidin-4-yl]oxy}-3-[2-(1,3-oxazol-4-ylmethoxy)phenyl]propanoic acid], the IC50 on Mcl-1 protein (setting [3]) amounted to 3.3e-07 M; in assay [1] (Homo sapiens, NCI-H929, 48 h), 0.118 µM.
Regarding `Cc1c(-c2c(-c3ccco3)sc3ncnc(OC(Cc4ccccc4OCc4ccnc(OCc5ccccc5)n4)C(=O)O)c23)ccc(OCCN2CCN(C)CC2)c1Cl` [Example 257, (2R)-3-(2-{[2-(benzyloxy)pyrimidin-4-yl]methoxy}phenyl)-2-{[(5Sa)-5-{3-chloro-2-methyl-4-[2-(4-methylpiperazin-1-yl)ethoxy]phenyl}-6-(furan-2-yl)thieno[2,3-d]pyrimidin-4-yl]oxy}propanoic acid], the half-maximal inhibitory concentration (IC50) on Mcl-1 protein (setting [3]) came out at 5e-09 M; in assay [1] (Homo sapiens, NCI-H929, 48 h) it was 0.019 µM.
For `Cc1c(-c2c(-c3ccco3)sc3ncnc(OC(Cc4ccccc4OCc4ccnc(C(F)(F)F)n4)C(=O)O)c23)ccc(OCCN2CCN(C)CC2)c1Cl` [Example 248, (2R)-2-{[(5Sa)-5-{3-chloro-2-methyl-4-[2-(4-methylpiperazin-1-yl)ethoxy]phenyl}-6-(furan-2-yl)thieno[2,3-d]pyrimidin-4-yl]oxy}-3-(2-{[2-(trifluoromethyl)pyrimidin-4-yl]methoxy}phenyl)propanoic acid], in that order: 6.9e-09 M and 0.015 µM.
For `Cc1c(-c2c(-c3ccco3)sc3ncnc(O[C@H](Cc4ccccc4OCc4cc(-c5ccccc5)ncn4)C(=O)O)c23)ccc(OCCN2CCN(C)CC2)c1Cl` [Example 224, (2R)-2-{[(5Sa)-5-{3-chloro-2-methyl-4-[2-(4-methylpiperazin-1-yl)ethoxy]phenyl}-6-(furan-2-yl)thieno[2,3-d]pyrimidin-4-yl]oxy}-3-{2-[(6-phenylpyrimidin-4-yl)methoxy]phenyl}propanoic acid], the IC50 at Mcl-1 protein (setting [3]) turned out to be 3.7e-09 M; in assay [1], 0.049 µM.
On to `COCCn1nncc1COc1ccccc1CC(Oc1ncnc2sc(-c3ccc(F)cc3)c(-c3ccc(OCCN4CCN(C)CC4)c(Cl)c3C)c12)C(=O)O` [Example 97, (2R)-2-{[(5Sa)-5-{3-chloro-2-methyl-4-[2-(4-methylpiperazin-1-yl)ethoxy]phenyl}-6-(4-fluorophenyl)thieno[2,3-d]pyrimidin-4-yl]oxy}-3-(2-{[1-(2-methoxyethyl)-1H-1,2,3-triazol-5-yl]methoxy}phenyl)propanoic acid], for which the IC50 at Mcl-1 protein (setting [3]) was found to be 3.3e-09 M; in assay [1] (Homo sapiens, NCI-H929, 48 h), 0.075 µM.
For the compound `Cc1c(-c2c(-c3cccc(F)c3)sc3ncnc(O[C@H](Cc4ccccc4O)C(=O)O)c23)ccc(OCCN2CCN(C)CC2)c1Cl` [Example 711, (2R)-2-{[(5Sa)-5-{3-chloro-2-methyl-4-[2-(4-methylpiperazin-1-yl)ethoxy]phenyl}-6-(3-fluorophenyl)thieno[2,3-d]pyrimidin-4-yl]oxy}-3-(2-hydroxyphenyl)propanoic acid], the results for the IC50 (at Mcl-1 protein (setting [2]); in assay [1]) were 3.7e-09 M and 0.591 µM, respectively.
Take `CCNC(=O)NCCCOc1ccc(-c2c(CC)sc3ncnc(OC(Cc4ccccc4)C(=O)O)c23)c(C)c1Cl` [Example 404, (2R)-2-{[(5Sa)-5-(3-chloro-4-{3-[(ethylcarbamoyl)amino]propoxy}-2-methylphenyl)-6-ethylthieno[2,3-d]pyrimidin-4-yl]oxy}-3-phenylpropanoic acid]: the IC50 at Mcl-1 protein (setting [2]) came out at 5.7e-08 M; in assay [1] (Homo sapiens, NCI-H929, 48 h) it was 21.6 µM.
In the case of `Cc1c(-c2c(-c3ccc(F)cc3)sc3ncnc(OC(Cc4ccccc4OCc4ccnc(OCc5ccncc5)n4)C(=O)O)c23)ccc(OCCN2CCN(C)CC2)c1Cl` [Example 59, (2R)-2-{[(5Sa)-5-{3-chloro-2-methyl-4-[2-(4-methylpiperazin-1-yl)ethoxy]phenyl}-6-(4-fluorophenyl)thieno[2,3-d]pyrimidin-4-yl]oxy}-3-(2-{[2-(pyridin-4-ylmethoxy)pyrimidin-4-yl]methoxy}phenyl)propanoic acid], the IC50 on Mcl-1 protein (setting [3]) worked out at 4e-09 M; in assay [1] (Homo sapiens, NCI-H929, 48 h), 0.021 µM.
In the case of `COc1cc(F)cc(-c2sc3ncnc(OC(Cc4ccccc4OC)C(=O)O)c3c2-c2ccc(OCCN3CCN(C)CC3)c(Cl)c2C)c1` [Example 528, (2R)-2-{[(5Sa)-5-{3-chloro-2-methyl-4-[2-(4-methylpiperazin-1-yl)ethoxy]phenyl}-6-(3-fluoro-5-methoxyphenyl)thieno[2,3-d]pyrimidin-4-yl]oxy}-3-(2-methoxyphenyl)propanoic acid], the IC50 is 1.6e-08 M on Mcl-1 protein (setting [2]) and 0.334 µM in assay [1] (Homo sapiens, NCI-H929, 48 h).
`CCCn1nccc1COc1ccccc1CC(Oc1ncnc2sc(-c3ccc(F)o3)c(-c3ccc(OCCN4CCN(C)CC4)c(Cl)c3C)c12)C(=O)O` [Example 187, (2R)-2-{[(5Sa)-5-{3-chloro-2-methyl-4-[2-(4-methylpiperazin-1-yl)ethoxy]phenyl}-6-(5-fluorofuran-2-yl)thieno[2,3-d]pyrimidin-4-yl]oxy}-3-{2-[(1-propyl-1H-pyrazol-5-yl)methoxy]phenyl}propanoic acid]: the IC50 was found to be 2.8e-09 M on Mcl-1 protein (setting [3]) and 0.02 µM in assay [1] (Homo sapiens, NCI-H929, 48 h).
As to `Cc1c(-c2c(-c3ccc(F)o3)sc3ncnc(OC(Cc4ccccc4OCc4ccnn4CC(F)(F)F)C(=O)O)c23)ccc(OCCN(C)C)c1Cl` [Example 205, (2R)-2-{[(5Sa)-5-{3-chloro-4-[2-(dimethylamino)ethoxy]-2-methylphenyl}-6-(5-fluorofuran-2-yl)thieno[2,3-d]pyrimidin-4-yl]oxy}-3-(2-{[1-(2,2,2-trifluoroethyl)-1H-pyrazol-5-yl]methoxy}phenyl)propanoic acid], the IC50 was 3.8e-09 M on Mcl-1 protein (setting [3]) and 0.028 µM in assay [1] (Homo sapiens, NCI-H929, 48 h).
Regarding `COc1ccccc1CC(Oc1ncnc2sc(-c3cc(F)c(F)c(F)c3F)c(-c3ccc(OCCN4CCN(C)CC4)c(Cl)c3C)c12)C(=O)O` [Example 525, (2R)-2-{[(5Sa)-5-{3-chloro-2-methyl-4-[2-(4-methylpiperazin-1-yl)ethoxy]phenyl}-6-(2,3,4,5-tetrafluorophenyl)thieno[2,3-d]pyrimidin-4-yl]oxy}-3-(2-methoxyphenyl)propanoic acid], the IC50 came to 3.3e-09 M on Mcl-1 protein (setting [2]) and 0.755 µM in assay [1] (Homo sapiens, NCI-H929, 48 h).
